According to PMC7026418, “The kinase polypharmacology landscape of clinical PARP inhibitors” (Scientific Reports, 2020):
Like-named read-outs stand apart in the source and are kept apart here.

Assays:
Assay in all cases: biochemical
Design in all cases: DiscoveRx KINOMEscan active site-directed competition binding; percent of control kinase bound to immobilised ligand
[1] = molecular target: T1, CDK11 (Homo sapiens, UniProt Q9BWU1)
T1 construct: gene CDK19

[2] = molecular target: EPHA5 (Homo sapiens, UniProt P54756)
Sequence of EPHA5 (P54756 whole entry): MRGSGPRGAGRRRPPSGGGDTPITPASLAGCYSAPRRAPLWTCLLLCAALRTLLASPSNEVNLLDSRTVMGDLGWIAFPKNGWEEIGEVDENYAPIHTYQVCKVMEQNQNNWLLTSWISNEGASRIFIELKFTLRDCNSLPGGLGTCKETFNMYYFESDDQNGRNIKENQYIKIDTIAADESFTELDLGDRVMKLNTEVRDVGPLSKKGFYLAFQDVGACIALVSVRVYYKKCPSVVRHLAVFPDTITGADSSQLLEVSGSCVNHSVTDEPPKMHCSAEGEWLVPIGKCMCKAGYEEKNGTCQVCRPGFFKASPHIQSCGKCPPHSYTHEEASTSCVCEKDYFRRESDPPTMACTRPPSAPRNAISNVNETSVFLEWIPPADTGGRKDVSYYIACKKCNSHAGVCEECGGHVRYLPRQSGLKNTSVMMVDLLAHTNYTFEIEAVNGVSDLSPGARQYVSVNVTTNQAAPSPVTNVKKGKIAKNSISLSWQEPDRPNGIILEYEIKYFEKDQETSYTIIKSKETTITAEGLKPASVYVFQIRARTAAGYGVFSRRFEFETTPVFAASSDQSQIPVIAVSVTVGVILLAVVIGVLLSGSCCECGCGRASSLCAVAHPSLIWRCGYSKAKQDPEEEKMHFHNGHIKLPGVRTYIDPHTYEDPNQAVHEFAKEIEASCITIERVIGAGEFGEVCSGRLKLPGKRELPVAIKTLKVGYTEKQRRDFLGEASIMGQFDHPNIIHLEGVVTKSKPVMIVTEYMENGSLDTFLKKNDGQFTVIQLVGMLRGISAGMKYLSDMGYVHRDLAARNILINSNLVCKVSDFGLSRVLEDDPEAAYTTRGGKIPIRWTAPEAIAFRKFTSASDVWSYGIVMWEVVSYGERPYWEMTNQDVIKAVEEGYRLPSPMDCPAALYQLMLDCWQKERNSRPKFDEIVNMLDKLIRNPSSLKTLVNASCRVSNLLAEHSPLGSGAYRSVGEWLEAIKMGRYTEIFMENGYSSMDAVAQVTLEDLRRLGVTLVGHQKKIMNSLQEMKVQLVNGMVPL

[3] = molecular target: MAP4K4 (Homo sapiens, UniProt O95819)
Sequence of MAP4K4 (O95819 whole entry): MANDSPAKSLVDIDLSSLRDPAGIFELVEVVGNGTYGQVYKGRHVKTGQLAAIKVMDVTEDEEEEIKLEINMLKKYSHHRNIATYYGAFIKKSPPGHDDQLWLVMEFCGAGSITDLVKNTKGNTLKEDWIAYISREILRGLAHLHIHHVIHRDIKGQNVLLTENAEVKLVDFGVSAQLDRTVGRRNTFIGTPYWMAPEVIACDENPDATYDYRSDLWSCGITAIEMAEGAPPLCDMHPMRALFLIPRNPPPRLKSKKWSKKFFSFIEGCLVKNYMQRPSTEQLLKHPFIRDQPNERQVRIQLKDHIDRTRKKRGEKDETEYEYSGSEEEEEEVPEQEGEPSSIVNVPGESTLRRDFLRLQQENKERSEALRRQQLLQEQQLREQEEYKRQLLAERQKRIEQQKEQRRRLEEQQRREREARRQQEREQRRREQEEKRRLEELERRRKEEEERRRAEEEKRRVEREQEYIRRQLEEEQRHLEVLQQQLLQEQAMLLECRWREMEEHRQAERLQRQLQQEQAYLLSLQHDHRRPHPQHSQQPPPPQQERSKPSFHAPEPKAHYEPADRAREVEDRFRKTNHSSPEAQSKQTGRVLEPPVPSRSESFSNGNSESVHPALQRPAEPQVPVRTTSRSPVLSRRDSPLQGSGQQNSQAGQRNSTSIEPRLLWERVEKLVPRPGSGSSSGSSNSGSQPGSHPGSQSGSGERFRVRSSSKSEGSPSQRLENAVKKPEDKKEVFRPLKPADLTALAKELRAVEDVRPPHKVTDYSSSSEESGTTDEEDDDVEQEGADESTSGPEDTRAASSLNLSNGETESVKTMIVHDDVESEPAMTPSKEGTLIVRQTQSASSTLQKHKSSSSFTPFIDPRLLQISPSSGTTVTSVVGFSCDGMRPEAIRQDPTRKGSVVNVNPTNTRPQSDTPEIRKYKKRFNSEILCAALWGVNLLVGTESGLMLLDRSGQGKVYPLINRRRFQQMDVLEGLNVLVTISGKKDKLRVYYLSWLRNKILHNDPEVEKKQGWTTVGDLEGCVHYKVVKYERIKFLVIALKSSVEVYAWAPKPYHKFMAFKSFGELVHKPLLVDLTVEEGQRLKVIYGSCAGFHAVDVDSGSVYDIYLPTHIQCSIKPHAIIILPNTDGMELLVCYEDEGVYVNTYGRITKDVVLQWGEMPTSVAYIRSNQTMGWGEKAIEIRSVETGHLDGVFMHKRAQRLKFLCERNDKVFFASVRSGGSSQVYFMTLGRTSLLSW

[4] = molecular target: RIOK2 (Homo sapiens, UniProt Q9BVS4)
Sequence of RIOK2 (Q9BVS4 whole entry): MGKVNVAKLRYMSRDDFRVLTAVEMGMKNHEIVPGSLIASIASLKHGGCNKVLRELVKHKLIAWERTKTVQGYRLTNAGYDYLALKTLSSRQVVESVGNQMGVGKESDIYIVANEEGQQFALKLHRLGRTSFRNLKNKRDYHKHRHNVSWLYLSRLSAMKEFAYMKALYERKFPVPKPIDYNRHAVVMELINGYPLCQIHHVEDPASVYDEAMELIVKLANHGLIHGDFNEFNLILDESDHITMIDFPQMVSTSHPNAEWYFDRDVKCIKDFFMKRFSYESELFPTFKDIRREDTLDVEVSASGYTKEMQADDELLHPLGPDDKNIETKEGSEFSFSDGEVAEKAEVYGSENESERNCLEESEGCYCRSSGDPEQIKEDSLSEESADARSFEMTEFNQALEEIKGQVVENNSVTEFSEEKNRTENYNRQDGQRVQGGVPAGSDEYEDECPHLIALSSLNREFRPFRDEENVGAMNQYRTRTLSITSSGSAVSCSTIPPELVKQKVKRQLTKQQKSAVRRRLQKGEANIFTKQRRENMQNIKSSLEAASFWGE

[5] = molecular target: T2, TAOK2 (Homo sapiens, UniProt Q9UL54)
T2 sequence (Q9UL54 1-1235): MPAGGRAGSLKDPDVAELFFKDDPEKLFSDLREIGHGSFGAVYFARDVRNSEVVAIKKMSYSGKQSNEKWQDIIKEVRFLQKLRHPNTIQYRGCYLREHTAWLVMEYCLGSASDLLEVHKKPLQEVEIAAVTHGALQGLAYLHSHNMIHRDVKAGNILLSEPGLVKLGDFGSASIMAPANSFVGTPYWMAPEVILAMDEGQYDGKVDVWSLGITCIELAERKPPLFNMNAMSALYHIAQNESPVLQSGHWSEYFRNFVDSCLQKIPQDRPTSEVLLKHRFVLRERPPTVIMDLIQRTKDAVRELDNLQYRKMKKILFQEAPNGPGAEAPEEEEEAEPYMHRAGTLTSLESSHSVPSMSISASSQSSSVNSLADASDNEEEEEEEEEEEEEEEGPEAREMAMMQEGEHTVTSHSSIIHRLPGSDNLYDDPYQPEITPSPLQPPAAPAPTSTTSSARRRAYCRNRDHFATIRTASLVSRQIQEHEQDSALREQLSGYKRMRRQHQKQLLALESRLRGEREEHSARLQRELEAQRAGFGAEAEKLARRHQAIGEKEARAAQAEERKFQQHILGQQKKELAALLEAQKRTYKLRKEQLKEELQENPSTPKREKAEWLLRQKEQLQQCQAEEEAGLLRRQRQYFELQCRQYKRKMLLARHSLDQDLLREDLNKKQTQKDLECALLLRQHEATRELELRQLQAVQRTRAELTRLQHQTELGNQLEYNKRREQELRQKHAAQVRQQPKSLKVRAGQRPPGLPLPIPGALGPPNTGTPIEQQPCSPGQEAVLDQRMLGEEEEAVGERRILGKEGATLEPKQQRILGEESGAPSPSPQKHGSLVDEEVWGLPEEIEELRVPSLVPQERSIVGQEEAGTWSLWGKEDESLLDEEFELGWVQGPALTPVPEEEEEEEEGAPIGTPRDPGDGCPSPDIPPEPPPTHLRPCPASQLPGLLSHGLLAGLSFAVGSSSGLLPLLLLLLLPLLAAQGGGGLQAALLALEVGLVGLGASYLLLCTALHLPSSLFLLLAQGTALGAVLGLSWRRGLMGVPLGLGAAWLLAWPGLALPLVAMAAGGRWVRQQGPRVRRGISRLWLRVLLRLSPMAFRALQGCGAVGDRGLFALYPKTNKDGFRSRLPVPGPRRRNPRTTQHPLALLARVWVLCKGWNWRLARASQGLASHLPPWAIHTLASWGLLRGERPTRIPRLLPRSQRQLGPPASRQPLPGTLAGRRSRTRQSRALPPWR

[6] = molecular target: T3, YSK4 (Homo sapiens, UniProt Q56UN5)
T3 construct: gene MAP3K19
T3 sequence (Q56UN5 1-1328): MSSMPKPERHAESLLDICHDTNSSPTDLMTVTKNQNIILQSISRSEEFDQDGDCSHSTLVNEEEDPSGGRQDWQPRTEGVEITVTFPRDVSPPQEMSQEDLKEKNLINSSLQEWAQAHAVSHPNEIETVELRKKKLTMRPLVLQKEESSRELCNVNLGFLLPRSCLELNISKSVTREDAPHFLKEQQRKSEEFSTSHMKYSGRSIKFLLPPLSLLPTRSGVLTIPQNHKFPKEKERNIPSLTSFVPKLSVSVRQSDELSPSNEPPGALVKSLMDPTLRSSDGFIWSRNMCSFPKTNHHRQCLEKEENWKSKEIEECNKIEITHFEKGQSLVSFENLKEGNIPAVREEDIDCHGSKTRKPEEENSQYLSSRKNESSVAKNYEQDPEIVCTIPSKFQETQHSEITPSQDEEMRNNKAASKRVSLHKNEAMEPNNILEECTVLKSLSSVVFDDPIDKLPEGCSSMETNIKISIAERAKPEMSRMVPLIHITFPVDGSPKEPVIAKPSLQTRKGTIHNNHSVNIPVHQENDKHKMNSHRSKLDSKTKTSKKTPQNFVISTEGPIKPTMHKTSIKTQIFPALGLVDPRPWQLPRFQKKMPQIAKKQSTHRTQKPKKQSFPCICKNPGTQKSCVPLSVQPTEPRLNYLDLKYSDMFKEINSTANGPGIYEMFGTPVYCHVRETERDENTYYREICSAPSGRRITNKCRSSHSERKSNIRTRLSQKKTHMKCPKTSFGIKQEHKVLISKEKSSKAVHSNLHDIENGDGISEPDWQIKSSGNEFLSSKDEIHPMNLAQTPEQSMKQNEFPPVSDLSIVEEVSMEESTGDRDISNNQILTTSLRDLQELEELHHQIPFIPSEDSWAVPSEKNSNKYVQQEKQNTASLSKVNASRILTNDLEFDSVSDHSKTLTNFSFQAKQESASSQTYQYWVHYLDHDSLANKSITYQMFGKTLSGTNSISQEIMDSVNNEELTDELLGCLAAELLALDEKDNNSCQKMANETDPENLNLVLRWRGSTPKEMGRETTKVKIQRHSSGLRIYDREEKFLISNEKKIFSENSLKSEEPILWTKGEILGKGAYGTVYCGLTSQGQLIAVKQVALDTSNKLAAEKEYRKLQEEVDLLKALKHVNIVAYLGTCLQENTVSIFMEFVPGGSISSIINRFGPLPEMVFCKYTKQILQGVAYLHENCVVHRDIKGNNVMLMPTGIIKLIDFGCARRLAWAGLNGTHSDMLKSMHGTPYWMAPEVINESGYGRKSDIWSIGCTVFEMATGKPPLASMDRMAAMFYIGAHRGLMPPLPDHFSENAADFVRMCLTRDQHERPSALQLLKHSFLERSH

[7] = read-out: Niraparib (MK-4827) / %Ctrl @ 10000nM
[8] = read-out: Olaparib / %Ctrl @ 10000nM
[9] = read-out: Rucaparib / %Ctrl @ 10000nM, binding competition, % of control
[10] = read-out: Talazoparib (BMN 673) / %Ctrl @ 10000nM

T1 sequence (Q9BWU1 whole entry): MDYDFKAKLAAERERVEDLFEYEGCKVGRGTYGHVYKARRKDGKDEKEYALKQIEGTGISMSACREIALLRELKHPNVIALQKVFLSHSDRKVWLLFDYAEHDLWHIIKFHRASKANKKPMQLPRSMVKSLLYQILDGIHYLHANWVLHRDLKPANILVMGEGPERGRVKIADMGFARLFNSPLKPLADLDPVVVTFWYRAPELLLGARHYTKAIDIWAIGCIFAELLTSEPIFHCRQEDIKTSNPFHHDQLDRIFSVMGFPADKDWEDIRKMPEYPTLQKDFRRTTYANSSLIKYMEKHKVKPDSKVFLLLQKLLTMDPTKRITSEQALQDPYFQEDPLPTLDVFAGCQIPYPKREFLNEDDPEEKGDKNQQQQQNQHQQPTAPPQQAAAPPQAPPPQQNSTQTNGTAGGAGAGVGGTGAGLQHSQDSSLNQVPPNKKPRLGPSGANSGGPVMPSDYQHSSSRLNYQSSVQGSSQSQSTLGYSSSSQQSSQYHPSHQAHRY

In the case of `NC(=O)c1cccc2cn(-c3ccc([C@@H]4CCCNC4)cc3)nc12` [Niraparib], the percent of control binding at 10 µM [1, 7] is reported as 93%, the percent of control binding at 10 µM [2, 7] is reported as 94% and the percent of control binding at 10 µM [3, 7] is reported as 94%. The percent of control binding at 10 µM [4, 7] was 67%, the percent of control binding at 10 µM [5, 7] was 100% and the percent of control binding at 10 µM [6, 7] was 63%.
With `O=C(c1cc(Cc2n[nH]c(=O)c3ccccc23)ccc1F)N1CCN(C(=O)C2CC2)CC1` [Olaparib] the percent of control binding at 10 µM [1, 8] was 85%, the percent of control binding at 10 µM [2, 8] was 96% and the percent of control binding at 10 µM [3, 8] was 100%. For the same compound, the percent of control binding at 10 µM [4, 8] was 84%, the percent of control binding at 10 µM [5, 8] was 93% and the percent of control binding at 10 µM [6, 8] was 65%.
In the case of `CNCc1ccc(-c2[nH]c3cc(F)cc4c3c2CCNC4=O)cc1` [Rucaparib], the percent of control binding at 10 µM [1, 9] is reported as 94%, the percent of control binding at 10 µM [2, 9] is reported as 93% and the percent of control binding at 10 µM [3, 9] is reported as 82%. The percent of control binding at 10 µM [4, 9] was 69%, the percent of control binding at 10 µM [5, 9] was 71% and the percent of control binding at 10 µM [6, 9] was 58%.
Compound `Cn1ncnc1[C@H]1c2n[nH]c(=O)c3cc(F)cc(c23)N[C@@H]1c1ccc(F)cc1` [Talazoparib] has a percent of control binding at 10 µM [1, 10] of 93%, a percent of control binding at 10 µM [2, 10] of 96% and a percent of control binding at 10 µM [3, 10] of 100%. It also gave a percent of control binding at 10 µM [4, 10] of 100%, a percent of control binding at 10 µM [5, 10] of 100% and a percent of control binding at 10 µM [6, 10] of 89%.
